The values that follow are results of earlier work, collected in paper PMC4781755 (Biochemistry, 2015).

One may read the Km as the concentration of substrate that gives half-maximal velocity.

For one series, the system named is hNaDC3. Particulars: read-out: Km for succinate, hNaDC3.
For a further series, the system named is hNaDC1. Particulars: read-out: Km for succinate, hNaDC1.

Regarding `O=C(O)CC(O)(CC(=O)O)C(=O)O` [citrate], in the series with vcINDY, the “inhibition of vcINDY” value is “weak inhibitor”. Consider `O=C(O)CCC(=O)O` [succinate], for which the Km was approximately 20 µM in the series with hNaDC3 and 500 µM in the series with hNaDC1.
